Where two headings read alike, the source gives them in different places.
How the values were obtained:
[1] = tested on: 60 human tumor cell lines (NCI60); assay: NCI60 one-dose screen (10 μM), whole panel; format: cell-based; settings: for activity at 10 µM: read-out: Growth percent rate, Mean
HT29 = assay: NCI60 five-dose screen, Colon Cancer; format: cell-based; settings: Homo sapiens, HT-29
DU-145 [2] = assay: NCI60 five-dose screen, Prostate Cancer; format: cell-based; settings: Homo sapiens
MDA-MB-231/ATCC = assay: NCI60 one-dose screen (10 μM), Breast Cancer; format: cell-based, human; settings: Homo sapiens
T-47D [3] = assay: NCI60 five-dose screen, Breast Cancer; format: cell-based; settings: Homo sapiens, T47D
HOP-92 = assay: NCI60 five-dose screen, Non-small Cell Lung Cancer; format: cell-based; settings: Homo sapiens
LOX IMVI = assay: NCI60 five-dose screen, Melanoma; format: cell-based; settings: Homo sapiens
PC-3 = assay: NCI60 one-dose screen (10 μM), Prostate Cancer; format: cell-based; settings: Homo sapiens
BT-549 = assay: NCI60 one-dose screen (10 μM), Breast Cancer; format: cell-based; settings: Homo sapiens
NCI-H460 [4] = assay: NCI60 one-dose screen (10 μM), Non-small Cell Lung Cancer; format: cell-based; settings: Homo sapiens
SNB-19 = assay: NCI60 five-dose screen, CNS Cancer; format: cell-based; settings: Homo sapiens
SF-539 = assay: NCI60 five-dose screen, CNS Cancer; format: cell-based; settings: Homo sapiens
UO-31 = assay: NCI60 one-dose screen (10 μM), Renal Cancer; format: cell-based; settings: Homo sapiens
ACHN = assay: NCI60 five-dose screen, Renal Cancer; format: cell-based; settings: Homo sapiens
SR = assay: NCI60 one-dose screen (10 μM), Leukemia; format: cell-based; settings: Homo sapiens, read-out: Growth percent rate
T-47D [5] = assay: NCI60 one-dose screen (10 μM), Breast Cancer; format: cell-based; settings: Homo sapiens, T47D, read-out: Growth percent rate
NCI/ADR-RES [6] = assay: NCI60 five-dose screen, Ovarian Cancer; format: cell-based; settings: Homo sapiens
EKVX = assay: NCI60 five-dose screen, Non-small Cell Lung Cancer; format: cell-based; settings: Homo sapiens
OVCAR-5 [7] = assay: NCI60 five-dose screen, Ovarian Cancer; format: cell-based; settings: Homo sapiens
DU-145 [8] = assay: NCI60 one-dose screen (10 μM), Prostate Cancer; format: cell-based; settings: Homo sapiens
TK-10 = assay: NCI60 five-dose screen, Renal Cancer; format: cell-based; settings: Homo sapiens
UACC-62 [9] = assay: NCI60 five-dose screen, Melanoma; format: cell-based; settings: Homo sapiens
NCI-H460 [10] = assay: NCI60 five-dose screen, Non-small Cell Lung Cancer; format: cell-based; settings: Homo sapiens
MDA-MB-435 = assay: NCI60 five-dose screen, Melanoma; format: cell-based; settings: Homo sapiens
NCI-H226 = assay: NCI60 one-dose screen (10 μM), Non-small Cell Lung Cancer; format: cell-based; settings: Homo sapiens
SNB-75 = assay: NCI60 one-dose screen (10 μM), CNS Cancer; format: cell-based, human; settings: Homo sapiens
U251 = assay: NCI60 one-dose screen (10 μM), CNS Cancer; format: cell-based; settings: Homo sapiens
SK-MEL-5 = assay: NCI60 five-dose screen, Melanoma; format: cell-based; settings: Homo sapiens
SK-OV-3 = assay: NCI60 one-dose screen (10 μM), Ovarian Cancer; format: cell-based; settings: Homo sapiens
OVCAR-4 = assay: NCI60 five-dose screen, Ovarian Cancer; format: cell-based; settings: Homo sapiens
K-562 = assay: NCI60 five-dose screen, Leukemia; format: cell-based; settings: Homo sapiens, K562
MDA-MB231ATCC = assay: NCI60 five-dose screen, Breast Cancer; format: cell-based; settings: Homo sapiens, MDA-MB-231
UACC-62 [11] = assay: NCI60 one-dose screen (10 μM), Melanoma; format: cell-based; settings: Homo sapiens
IGROV1 = assay: NCI60 five-dose screen, Ovarian Cancer; format: cell-based; settings: Homo sapiens, IGROV-1
SF-268 = assay: NCI60 five-dose screen, CNS Cancer; format: cell-based; settings: Homo sapiens
NCI/ADR-RES [12] = assay: NCI60 one-dose screen (10 μM), Ovarian Cancer; format: cell-based; settings: Homo sapiens, read-out: Growth percent rate
A498 = assay: NCI60 one-dose screen (10 μM), Renal Cancer; format: cell-based; settings: Homo sapiens
HS 578T = assay: NCI60 five-dose screen, Breast Cancer; format: cell-based; settings: Homo sapiens
CAKI-1 = assay: NCI60 five-dose screen, Renal Cancer; format: cell-based; settings: Homo sapiens
HOP-62 = assay: NCI60 five-dose screen, Non-small Cell Lung Cancer; format: cell-based; settings: Homo sapiens
HCT-116 = assay: NCI60 five-dose screen, Colon Cancer; format: cell-based; settings: Homo sapiens
OVCAR-5 [13] = assay: NCI60 one-dose screen (10 μM), Ovarian Cancer; format: cell-based; settings: Homo sapiens
HL-60(TB) = assay: NCI60 five-dose screen, Leukemia; format: cell-based; settings: Homo sapiens

CC[C@]12C=CCN3CC[C@@]4(c5ccc(OC)cc5N(C)[C@H]4[C@@](O)(C(=O)OC)[C@@H]1OC(=O)CCCN1CCN(Cc4ccc(F)cc4)CC1)[C@@H]32 [Compound 24]
activity at 10 µM ([1]; 10 μM, mean over 60 human cancer cell lines): 20.4% | GI50 (HT29; HT29, Colon Cancer, five-dose screen, read-out: GI50): 3800 nM | GI50 (DU-145 [2]; DU-145, Prostate Cancer, five-dose screen, read-out: GI50): 10500 nM | activity at 10 µM (MDA-MB-231/ATCC; 10 μM, MDA-MB-231/ATCC, Breast Cancer, read-out: Growth percent rate): 51.5% | GI50 (T-47D [3]; T-47D, Breast Cancer, five-dose screen, read-out: GI50): 5620 nM | GI50 (HOP-92; HOP-92, Non-small Cell Lung Cancer, five-dose screen, read-out: GI50): 1660 nM | GI50 (LOX IMVI; Melanoma, five-dose screen, read-out: GI50): 5010 nM | activity at 10 µM (PC-3; 10 μM, PC-3, Prostate Cancer, read-out: Growth percent rate): 12.9% | activity at 10 µM (BT-549; 10 μM, BT-549, Breast Cancer, read-out: Growth percent rate): 16.3% | activity at 10 µM (NCI-H460 [4]; 10 μM, NCI-H460, Non-small Cell Lung Cancer, read-out: Growth percent rate): 30.6% | GI50 (SNB-19; SNB-19, CNS Cancer, five-dose screen, read-out: GI50): 11500 nM | GI50 (SF-539; SF-539, CNS Cancer, five-dose screen, read-out: GI50): 10500 nM | activity at 10 µM (UO-31; 10 μM, UO-31, Renal Cancer, read-out: Growth percent rate): 20.7% | GI50 (ACHN; Renal Cancer, five-dose screen, read-out: GI50): 5890 nM | activity at 10 µM (SR; 10 μM, Leukemia): 4.82% | activity at 10 µM (T-47D [5]; 10 μM, T-47D, Breast Cancer): 28.8% | GI50 (NCI/ADR-RES [6]; Ovarian Cancer, five-dose screen, read-out: GI50): 11800 nM | GI50 (EKVX; Non-small Cell Lung Cancer, five-dose screen, read-out: GI50): 12000 nM | GI50 (OVCAR-5 [7]; OVCAR-5, Ovarian Cancer, five-dose screen, read-out: GI50): 13800 nM | activity at 10 µM (DU-145 [8]; 10 μM, DU-145, Prostate Cancer, read-out: Growth percent rate): 39.5% | GI50 (TK-10; TK-10, Renal Cancer, five-dose screen, read-out: GI50): 4900 nM | GI50 (UACC-62 [9]; UACC-62, Melanoma, five-dose screen, read-out: GI50): 11500 nM | GI50 (NCI-H460 [10]; NCI-H460, Non-small Cell Lung Cancer, five-dose screen, read-out: GI50): 8510 nM | GI50 (MDA-MB-435; MDA-MB-435, Melanoma, five-dose screen, read-out: GI50): 5500 nM | activity at 10 µM (NCI-H226; 10 μM, NCI-H226, Non-small Cell Lung Cancer, read-out: Growth percent rate): 50.2% | activity at 10 µM (SNB-75; 10 μM, SNB-75, CNS Cancer, read-out: Growth percent rate): -0.13% | activity at 10 µM (U251; U-251, 10 μM, U251, CNS Cancer, read-out: Growth percent rate): 40.3% | GI50 (SK-MEL-5; SK-MEL-5, Melanoma, five-dose screen, read-out: GI50): 1660 nM | activity at 10 µM (SK-OV-3; 10 μM, SK-OV-3, Ovarian Cancer, read-out: Growth percent rate): 70% | GI50 (OVCAR-4; OVCAR-4, Ovarian Cancer, five-dose screen, read-out: GI50): 5370 nM | GI50 (K-562; K-562, Leukemia, five-dose screen, read-out: GI50): 2400 nM | GI50 (MDA-MB231ATCC; MDA-MB231ATCC, Breast Cancer, five-dose screen, read-out: GI50): 2820 nM | activity at 10 µM (UACC-62 [11]; 10 μM, UACC-62, Melanoma, read-out: Growth percent rate): 34.7% | GI50 (IGROV1; IGROV1, Ovarian Cancer, five-dose screen, read-out: GI50): 2510 nM | GI50 (SF-268; SF-268, CNS Cancer, five-dose screen, read-out: GI50): 5250 nM | activity at 10 µM (NCI/ADR-RES [12]; 10 μM, Ovarian Cancer): 42% | activity at 10 µM (A498; 10 μM, A498, Renal Cancer, read-out: Growth percent rate): 58.3% | GI50 (HS 578T; HS 578T, Breast Cancer, five-dose screen, read-out: GI50): 4070 nM | GI50 (CAKI-1; CAKI-1, Renal Cancer, five-dose screen, read-out: GI50): 2240 nM | GI50 (HOP-62; HOP-62, Non-small Cell Lung Cancer, five-dose screen, read-out: GI50): 10200 nM | GI50 (HCT-116; HCT-116, Colon Cancer, five-dose screen, read-out: GI50): 5620 nM | activity at 10 µM (OVCAR-5 [13]; 10 μM, OVCAR-5, Ovarian Cancer, read-out: Growth percent rate): 81.2% | GI50 (HL-60(TB); HL-60(TB), Leukemia, five-dose screen, read-out: GI50): 3310 nM

CC[C@]12C=CCN3CC[C@@]4(c5ccc(OC)cc5N(C)[C@H]4[C@@](O)(C(=O)OC)[C@@H]1OC(=O)CCCN1CCN(C(c4ccc(F)cc4)c4ccc(F)cc4)CC1)[C@@H]32 [Compound 25]
growth rate ([1]; 10 μM one-dose, on almost all tested cancer types and cell lines, negative = lethality): < −60% | activity at 10 µM ([1]; Homo sapiens): -79.9% | GI50 (HT29): 1910 nM | GI50 (DU-145 [2]; DU-145): 1780 nM | activity at 10 µM (MDA-MB-231/ATCC; MDA-MB-231, read-out: Growth percent rate): -94% | GI50 (T-47D [3]): 1660 nM | GI50 (HOP-92; HOP-92): 1350 nM | GI50 (LOX IMVI): 1740 nM | activity at 10 µM (PC-3; PC-3, read-out: Growth percent rate): -72.3% | activity at 10 µM (BT-549; BT-549, read-out: Growth percent rate): -92.4% | activity at 10 µM (NCI-H460 [4]; NCI-H460, read-out: Growth percent rate): -70.4% | GI50 (SNB-19; SNB-19): 1660 nM | GI50 (SF-539; SF-539): 1660 nM | activity at 10 µM (UO-31; UO-31, read-out: Growth percent rate): -97.8% | GI50 (ACHN): 2090 nM | activity at 10 µM (SR): -43.6% | activity at 10 µM (T-47D [5]): -64.6% | GI50 (NCI/ADR-RES [6]): 1740 nM | GI50 (EKVX): 1700 nM | GI50 (OVCAR-5 [7]; OVCAR-5): 1660 nM | activity at 10 µM (DU-145 [8]; DU-145, read-out: Growth percent rate): -94.4% | GI50 (TK-10; TK-10): 1510 nM | GI50 (UACC-62 [9]; UACC-62): 1780 nM | GI50 (NCI-H460 [10]; NCI-H460): 1780 nM | GI50 (MDA-MB-435; MDA-MB-435): 1660 nM | activity at 10 µM (NCI-H226; NCI-H226, read-out: Growth percent rate): -74.8% | activity at 10 µM (SNB-75; SNB-75, read-out: Growth percent rate): -86.4% | activity at 10 µM (U251; U-251, read-out: Growth percent rate): -79% | GI50 (SK-MEL-5; SK-MEL-5): 1550 nM | activity at 10 µM (SK-OV-3; SK-OV-3, read-out: Growth percent rate): -72.5% | GI50 (OVCAR-4; OVCAR-4): 1950 nM | GI50 (K-562): 1910 nM | GI50 (MDA-MB231ATCC): 1580 nM | activity at 10 µM (UACC-62 [11]; UACC-62, read-out: Growth percent rate): -92.5% | GI50 (IGROV1): 1380 nM | GI50 (SF-268; SF-268): 1700 nM | activity at 10 µM (NCI/ADR-RES [12]): -80.8% | activity at 10 µM (A498; A498, read-out: Growth percent rate): -97.2% | GI50 (HS 578T; Hs-578T): 1780 nM | GI50 (CAKI-1; CAKI-1): 1480 nM | GI50 (HOP-62; HOP-62): 1620 nM | GI50 (HCT-116; HCT-116): 1780 nM | activity at 10 µM (OVCAR-5 [13]; OVCAR-5, read-out: Growth percent rate): -92% | GI50 (HL-60(TB); HL-60): 1550 nM

Reference: publication PMC11277489, “Novel Piperazine Derivatives of Vindoline as Anticancer Agents” (International Journal of Molecular Sciences, 2024)
